What was measured:
[1] = target: T1, coagulation factor XIa protease (FXIa) (Homo sapiens, UniProt P03951); test: Inhibition of coagulation factor XIa (FXIa), chromogenic substrate, absorbance at 405; type: biochemical; settings: FXIa 0.05 μg/mL, substrate 2.5 mM, 37° C. 15 minutes
T1 construct: purchased Abcam ab62411
Protocol: Coagulation factor XIa protease (FXIa) decomposed the specific substrate to produce yellow p-nitroaniline (pNA), pNA had strong absorption at 405 nm. The inhibitory activity of the compounds on coagulation factor XIa was determined by assaying the absorbance of the compounds at […].
The coagulation factor XIa protease used in the experiment was purchased from Abcam Company, Item No. ab62411; the coagulation factor XIa-specific substrate was purchased from HYPHEN BioMed, Item No. Biophen cs-21 (66); tris-HCl was purchased from Invitrogen, Item No. 15567-027; NaCl was purchased from ABCONE, Item No. S39168; Twain 20 was purchased from Amersco, Item No. 0777-1L.
(§1) The compounds were dissolved in 100% DMSO, 20 mM, and stored at room temperature in a nitrogen cabinet.
a. 20 mM of the tested compound was diluted to 2 mM using 100% DMSO, and the reference compound was diluted to 0.4 mM; the compound was continuously diluted with a 3-fold gradient at 10 concentration points using a Bravo liquid workstation.
b. The ECHO liquid workstation was used to transfer 10 nL of compound to the corresponding 384-well experimental plate with double replicate wells; the final concentrations of compound reactions were 1000, 333.3, 111.1, 37.0, 12.3, 4.1, 1.37, 0.46, 0.15, and 0.05 nM. The final concentrations of reference compounds were 200, 66.7, 22.2, 7.4, 2.47, 0.82, 0.27, 0.09, 0.03, 0.01 nM.
c. 10 nL DMSO and 10 nL 0.4 mM reference compounds were transferred to high signal control pores and low signal control pores respectively.
d. 0.1 μg/mL FXIa enzyme solution was prepared with buffer solution, and 10 μL enzyme solution was added to 384-well experimental plate, 5 mM substrate solution was prepared using buffer solution, and […] substrate solution was added to a 384-well experimental plate. The final concentration of FXIa was 0.05 μg/mL and the final concentration of the substrate was 2.5 mM.
e. The 384-hole experimental plate was centrifuged and incubated at 37° C. for 15 minutes.
f. The absorbance was measured at 405 nm using EnVision.

human plasma = test: Anticoagulant effect on human blood in vitro (APTT clotting time, CT2.0); settings: final concentration of compound corresponding to aPTT of the 2-fold blank control
Protocol: Activated partial thromboplastin time (APTT) measurement reagent was mixed with plasma and the reaction was carried out continuously resulting in a change in optical density up to the clotting point, and the clotting time (CT) was measured by optical turbidimetry using a semi-automatic coagulation analyzer. The in vitro anticoagulant activity of compounds on human blood was determined by detecting the clotting time of plasma treated with different concentrations of compounds, and the corresponding concentration of compounds prolonging clotting time was calculated.
Human plasma used in the experiment was purchased from HD Biosciences (Shanghai) Co., Ltd.; Activated partial thromboplastin time determination kit was purchased from Taizhou Zhongqin Shidi Biotechnology Co., Ltd., Item No. SS00220005.
as §1
a. The NaCl reagent in the kit was incubated half an hour in advance, and the APTT reagent was balanced to room temperature.
b. The compound was continuously diluted at 14 concentration points using a Bravo liquid workstation with a 2-fold gradient.
c. 0.75 μL of the compound was added to the measuring cup, double-replicate wells; 50 μL of plasma was added and 50 μL of APTT reagent was added, the mixture was mixed well and put into coagulation analyzer for incubation at 37° C. for 3 minutes.
d. APTT assay was started, 50 μL of NaCl was added to start the reaction, and the clotting time was counted.
e. Control clotting time was measured using 100% DMSO instead of the compound, and the final concentration of DMSO was 0.5%.
Data were curve-fitted using Graphpad Prism to calculate CT2.0, the final concentration of compound corresponding to aPTT of the 2-fold blank control was calculated.

T1 sequence (P03951 388-625 limits assumed): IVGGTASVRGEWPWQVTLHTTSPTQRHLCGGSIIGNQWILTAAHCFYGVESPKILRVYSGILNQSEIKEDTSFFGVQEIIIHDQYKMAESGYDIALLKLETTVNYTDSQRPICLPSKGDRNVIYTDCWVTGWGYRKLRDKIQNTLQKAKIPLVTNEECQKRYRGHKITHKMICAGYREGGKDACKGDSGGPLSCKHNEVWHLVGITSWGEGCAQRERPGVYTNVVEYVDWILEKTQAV
T1 sequence (P03951 19-387 partner limits assumed): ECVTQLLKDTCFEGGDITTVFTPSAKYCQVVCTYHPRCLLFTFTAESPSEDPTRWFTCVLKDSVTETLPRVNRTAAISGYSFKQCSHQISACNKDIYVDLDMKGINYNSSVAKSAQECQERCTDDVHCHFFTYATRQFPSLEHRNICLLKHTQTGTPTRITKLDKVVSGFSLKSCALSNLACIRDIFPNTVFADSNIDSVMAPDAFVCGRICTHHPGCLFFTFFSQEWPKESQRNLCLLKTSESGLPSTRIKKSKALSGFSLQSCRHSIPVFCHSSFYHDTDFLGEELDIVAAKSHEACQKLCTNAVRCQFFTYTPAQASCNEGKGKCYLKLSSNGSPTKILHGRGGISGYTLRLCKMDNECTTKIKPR

Structure (SMILES) | IC50 [1] [nM] | CT2.0 (human plasma) [µM]
Nc1ccc(-c2cnc([C@@H]3[C@H]4C[C@H]4c4cc(-c5cc(Cl)ccc5-n5cnnn5)cc(=O)n43)[nH]2)c(F)n1 [Embodiment 1] | 6.5 | 1.72
Nc1ccc(-c2[nH]c([C@@H]3[C@H]4C[C@H]4c4cc(-c5cc(Cl)ccc5-n5cnnn5)cc(=O)n43)nc2F)c(F)n1 [Embodiment 2] | 6.7 | 0.55
Nc1ccc(-c2[nH]c([C@@H]3[C@H]4C[C@H]4c4nc(-c5cc(Cl)ccc5-n5cnnn5)cc(=O)n43)nc2F)c(F)n1 [Embodiment 14] | 2.84 | 0.55
Nc1n[nH]c2cc(-c3cnc([C@@H]4[C@H]5C[C@H]5c5cc(-c6cc(Cl)ccc6-n6cnnn6)cc(=O)n54)[nH]3)ccc12 [Embodiment 15] | 0.82 | 0.47
O=C1CCc2cc(-c3cnc([C@@H]4[C@H]5C[C@H]5c5cc(-c6cc(Cl)ccc6-n6cnnn6)cc(=O)n54)[nH]3)ccc2N1 [Embodiment 16] | 4.74 | 0.63
O=C1CCc2cc(-c3[nH]c([C@@H]4[C@H]5C[C@H]5c5cc(-c6cc(Cl)ccc6-n6cnnn6)cc(=O)n54)nc3F)ccc2N1 [Embodiment 17] | 0.83 | 0.54
O=C1COc2cc(-c3cnc([C@@H]4[C@H]5C[C@H]5c5cc(-c6cc(Cl)ccc6-n6cnnn6)cc(=O)n54)[nH]3)ccc2N1 [Embodiment 20] | 6.3 | 0.88
Nc1ccc(-c2cnc([C@@H]3[C@H]4C[C@H]4c4cc(-c5cc(Cl)ccc5-n5cnnn5)cc(=O)n43)[nH]2)c(F)c1F [Embodiment 24] | 8.65 | 0.90
Nc1noc2cc(-c3cnc([C@@H]4[C@H]5C[C@H]5c5cc(-c6cc(Cl)ccc6-n6cnnn6)cc(=O)n54)[nH]3)ccc12 [Embodiment 28] | 0.82 | 0.07
Nc1noc2cc(-c3[nH]c([C@@H]4[C@H]5C[C@H]5c5cc(-c6cc(Cl)ccc6-n6cnnn6)cc(=O)n54)nc3F)ccc12 [Embodiment 29] | 0.5 | 0.37
O=C1CCc2cc(-c3[nH]c([C@@H]4[C@H]5C[C@H]5c5cc(-c6cc(Cl)ccc6-n6cc(Cl)nn6)cc(=O)n54)nc3F)ccc2N1 [Embodiment 31] | 4.63 | 2.38
Nc1n[nH]c2cc(-c3cnc([C@@H]4[C@H]5C[C@H]5c5cc(-c6cc(Cl)ccc6-n6cc(Cl)nn6)cc(=O)n54)[nH]3)ccc12 [Embodiment 32] | 2.72 | 0.26
Nc1n[nH]c2cc(-c3[nH]c([C@@H]4[C@H]5C[C@H]5c5cc(-c6cc(Cl)ccc6-n6cc(Cl)nn6)cc(=O)n54)nc3F)ccc12 [Embodiment 33] | 0.85 | 0.69
Cn1nc(N)c2ccc(-c3cnc([C@@H]4[C@H]5C[C@H]5c5cc(-c6cc(Cl)ccc6-n6cnnn6)cc(=O)n54)[nH]3)cc21 [Embodiment 34] | 11.9 | 0.58
O=c1cc(-c2cc(Cl)ccc2-n2cnnn2)cc2n1[C@H](c1ncc(-c3ccc4c(c3)CCc3cn[nH]c3-4)[nH]1)[C@H]1C[C@@H]21 [Embodiment 42] | 8.71 | 1.08
Nc1ccc(-c2[nH]c([C@@H]3[C@H]4C[C@H]4c4cc(-c5cc(Cl)ccc5-n5cnnn5)cc(=O)n43)nc2F)c(F)c1F [Embodiment 48] | 3.93 | 3.65
Nc1ccc(-c2[nH]c([C@@H]3[C@H]4C[C@H]4c4cc(-c5cc(Cl)ccc5-n5cnnn5)cc(=O)n43)nc2F)cc1OC(F)(F)F [Embodiment 49] | 6.4 | 6.86
Nc1ccc(-c2[nH]c([C@@H]3[C@H]4C[C@H]4c4cc(-c5cc(Cl)ccc5-n5cnnn5)cc(=O)n43)nc2F)cc1C(F)(F)F [Embodiment 50] | 7.02 | 3.16

Structure (SMILES) | IC50 [1] [nM] | CT2.0 (human plasma) [µM]
O=c1cnc2cc(-c3cnc([C@@H]4[C@H]5C[C@H]5c5cc(-c6cc(Cl)ccc6-n6cnnn6)cc(=O)n54)[nH]3)ccc2[nH]1 [Embodiment 55] | 5.18 | 0.67
O=C1Nc2ccc(-c3cnc([C@@H]4[C@H]5C[C@H]5c5cc(-c6cc(Cl)ccc6-n6cnnn6)cc(=O)n54)[nH]3)cc2CO1 [Embodiment 57] | 8.32 | 0.54
O=c1[nH]c2ccc(-c3[nH]c([C@@H]4[C@H]5C[C@H]5c5cc(-c6cc(Cl)ccc6-n6cnnn6)cc(=O)n54)nc3F)cc2cc1C(F)(F)F [Embodiment 58] | 3.25 | 1.21
CC1Cc2cc(-c3[nH]c([C@@H]4[C@H]5C[C@H]5c5cc(-c6cc(Cl)ccc6-n6cnnn6)cc(=O)n54)nc3F)ccc2NC1=O (stereo partly shown) [Embodiment 59] | 1.41 | 0.84
O=C1COc2cc(-c3[nH]c([C@@H]4[C@H]5C[C@H]5c5cc(-c6cc(Cl)ccc6-n6cc(Cl)nn6)cc(=O)n54)nc3F)ccc2N1 [Embodiment 62] | 6.76 | 2.32
O=C1Nc2ccc(-c3[nH]c([C@@H]4[C@H]5C[C@H]5c5cc(-c6cc(Cl)ccc6-n6cc(Cl)nn6)cc(=O)n54)nc3F)cc2CO1 [Embodiment 64] | 4.78 | 1.11
Nc1noc2c(F)c(-c3cnc([C@@H]4[C@H]5C[C@H]5c5cc(-c6cc(Cl)ccc6-n6cc(Cl)nn6)cc(=O)n54)[nH]3)ccc12 [Embodiment 68] | 3.54 | 0.65
Nc1noc2cc(-c3[nH]c([C@@H]4[C@H]5C[C@H]5c5cc(-c6cc(Cl)ccc6-n6cc(Cl)nn6)cc(=O)n54)nc3F)ccc12 [Embodiment 69] | 0.36 | 0.86
CNc1noc2cc(-c3[nH]c([C@@H]4[C@H]5C[C@H]5c5cc(-c6cc(Cl)ccc6-n6cc(Cl)nn6)cc(=O)n54)nc3F)ccc12 [Embodiment 70] | 2.16 | 1.32
Cn1nc(N)c2ccc(-c3[nH]c([C@@H]4[C@H]5C[C@H]5c5cc(-c6cc(Cl)ccc6-n6cc(Cl)nn6)cc(=O)n54)nc3F)cc21 [Embodiment 75] | 5.27 | 1.42
Cn1nc(N)c2ccc(-c3[nH]c([C@@H]4[C@H]5C[C@H]5c5cc(-c6cc(Cl)ccc6-n6cnnn6)cc(=O)n54)nc3F)cc21 [Embodiment 76] | 0.76 | 0.43
O=C1CCc2cc(-c3[nH]c([C@@H]4[C@H]5C[C@H]5c5cc(-c6cc(Cl)ccc6-n6cc(Cl)nn6)cc(=O)n54)nc3Cl)ccc2N1 [Embodiment 77] | 3.18 | 0.82
Nc1n[nH]c2cc(-c3[nH]c([C@@H]4[C@H]5C[C@H]5c5cc(-c6cc(Cl)ccc6-n6cc(C(F)(F)F)nn6)cc(=O)n54)nc3F)ccc12 [Embodiment 78] | 1.41 | 0.86
Nc1noc2cc(-c3[nH]c([C@@H]4[C@H]5C[C@H]5c5cc(-c6cc(Cl)ccc6-n6cc(C(F)(F)F)nn6)cc(=O)n54)nc3F)ccc12 [Embodiment 79] | 1.02 | 0.72
O=C1CCc2cc(-c3[nH]c([C@@H]4[C@H]5C[C@H]5c5cc(-c6cc(Cl)ccc6-n6cc(C(F)(F)F)nn6)cc(=O)n54)nc3Cl)ccc2N1 [Embodiment 80] | 6.36 | 3.50
O=C1CCc2cc(-c3[nH]c([C@@H]4[C@H]5C[C@H]5c5cc(-c6cc(Cl)ccc6-n6cc(C(F)(F)F)nn6)cc(=O)n54)nc3F)ccc2N1 [Embodiment 81] | 5.37 | 2.28
Nc1n[nH]c2cc(-c3cnc([C@@H]4[C@H]5C[C@H]5c5cc(-c6cc(Cl)ccc6-n6cc(C(F)F)nn6)cc(=O)n54)[nH]3)ccc12 [Embodiment 82] | 4.84 | 1.04
